Where two headings read alike, the source gives them in different places. Starred links: 1 amine or outer side, 2 acyl side, 3 side chain; linkers in the order of their positions; H or OH if unused. Non-standard residues stand in square brackets, D forms with d. Residues, ends and D or L forms follow the SMILES beside them. *: point of attachment. Trp(7-Me) = Cc1cccc2c(C[C@H](N)C(=O)O)c[nH]c12; C20 diacid = O=C(O)CCCCCCCCCCCCCCCCCCC(=O)*; d(γGlu) = O=C(O)[C@@H](CCC(=O)[*:2])N[*:1]; C18 diacid = O=C(O)CCCCCCCCCCCCCCCCC(=O)*; γGlu = O=C(O)[C@H](CCC(=O)[*:2])N[*:1]; Nle = CCCC[C@H](N)C(=O)O; β3hA = C[C@H](N)CC(=O)O; AEEA = NCCOCCOCC(=O)O; βAla = NCCC(=O)O
What was measured:
[1] = target: T1, human GRP receptors (Homo sapiens, UniProt P30550); assay: IP1 GRPR activity: HTRF IP1-Gq assay in U2OS cells stably expressing human GRP receptors; type: cell-based; settings: 90 minutes incubation, read-out: hIP1 GRPR EC50
T1 construct: host or cells: U2OS
Description: U2OS cells stably expressing human GRP receptors (DiscoverX, #93-0229C3) were cultured according to manufacturer's instructions. Cells were cultured to […], then collected using AccuTase (Innovative Cell Technologies, #AT104). Cells were washed and plated on a poly-D-lysine-coated 384-well plate (ThermoFisher, #A3890401) at a density of 2,500 cells/well in […] assay buffer (AssayComplete Cell Plating 5 Reagent, DiscoverX #93-0563R5), then incubated overnight at 37° C. and 5% C02. The following morning, a homogenous time-resolved fluorescence (HTRF) assay was performed in a 384-well plate format using the IP1-Gq assay kit (Cisbio, 62IPAPEB). Test compounds were made as a stock in DMSO, then serially diluted to generate 10-point dose response curves in IP1 stimulation buffer. Five microliters of the prepared compounds were then added to the plate containing cells and assay buffer in duplicate, and the cells were incubated at 37° C. and 5% CO2 for 90 minutes. Following compound incubation, […] of IP1 lysis/detection buffer (prepared according to manufacturer's instructions) was added to each well, and the plates were incubated at room temperature for 1 hour. HTRF signals were measured using a plate reader (ClarioSTAR), calculating the ratio between emissions at 665 nm and 620 nm (HTRF ratio). HTRF ratio for positive (Max, […]; SEQ ID NO. 45) and negative (Min, DMSO) controls were used to normalize HTRF data and generate values for % activity. EC50 and Max activity values were determined using a standard 4-parameter fit using GraphPad Prism.

[2] = Pharmacokinetics after intravenous peptide administration in mice; design: species or system C57BL/6 mice; settings: in vivo
Description: GPR-10 and peptides were dosed IV at 2 mg/kg as a formulation of 0.4 mg/mL in […]+65% water (pH 6-7).

[3] = mouse, C57BL/6 mice, IV 2 mg/kg, formulation of 0.4 mg/mL, read-out: CL
[4] = mouse, C57BL/6 mice, IV 2 mg/kg, formulation of 0.4 mg/mL, read-out: T1/2 (converted)

T1 sequence (P30550 whole entry): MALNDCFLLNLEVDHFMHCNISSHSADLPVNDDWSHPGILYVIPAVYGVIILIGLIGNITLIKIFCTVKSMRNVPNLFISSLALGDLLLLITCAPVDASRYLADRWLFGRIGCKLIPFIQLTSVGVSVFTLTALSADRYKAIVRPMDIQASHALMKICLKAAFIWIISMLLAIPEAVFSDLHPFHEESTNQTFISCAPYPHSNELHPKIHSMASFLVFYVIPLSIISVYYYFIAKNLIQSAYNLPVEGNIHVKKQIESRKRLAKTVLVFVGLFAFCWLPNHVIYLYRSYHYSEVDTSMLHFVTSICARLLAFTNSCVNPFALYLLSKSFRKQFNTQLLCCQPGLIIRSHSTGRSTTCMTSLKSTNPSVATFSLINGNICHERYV

SMILES | EC50 [1] [nM] | clearance [2, 3] [mL/min/kg] | half-life [2, 4] [h] | further results
CCCC[C@H](NC(=O)[C@H](CC(C)C)NC(=O)[C@H](Cc1c[nH]cn1)NC(=O)CCNC(=O)[C@@H](NC(=O)[C@H](C)NC(=O)[C@H](Cc1c[nH]c2c(C)cccc12)NC(=O)[C@H](Cc1c[nH]cn1)NC(=O)[C@H](CCC(=O)O)NC(=O)CNC(=O)[C@H](CO)NC(=O)COCCOCCNC(=O)COCCOCCNC(=O)CC[C@H](NC(=O)CC[C@H](NC(=O)CCCCCCCCCCCCCCCCCCC(=O)O)C(=O)O)C(=O)O)C(C)C)C(N)=O [Peptide 255, Eicosanedioyl-γGlu-Glu-OEG-OEG-Ser-Gly-Glu-His-7MeTrp-Ala-Val-β-Ala-His-Leu-Nle-NH2] ({C20 diacid-γGlu-γGlu-AEEA-AEEA}-SGEH[Trp(7-Me)]AV[βAla]HL[Nle]-NH2) | 6.9 | 0.09 | 9.4 | –
CCCC[C@H](NC(=O)[C@H](CC(C)C)NC(=O)[C@H](Cc1c[nH]cn1)NC(=O)[C@@H](C)NC(=O)[C@@H](NC(=O)[C@H](C)NC(=O)[C@H](Cc1c[nH]c2ccccc12)NC(=O)[C@H](Cc1c[nH]cn1)NC(=O)[C@H](CC(N)=O)NC(=O)CNC(=O)COCCOCCNC(=O)COCCOCCNC(=O)CC[C@@H](NC(=O)CCCCCCCCCCCCCCCCC(=O)O)C(=O)O)C(C)C)C(N)=O [Peptide 9, Octadecanedioyl-D-γGlu-OEG-OEG-Gly-Asn-His-Trp-Ala-Val-D-Ala-His-Leu-Nle-NH2] ({C18 diacid-d(γGlu)-AEEA-AEEA}-GNHWAV[dA]HL[Nle]-NH2) | – | 0.5 | 5.7 | –
CCCC[C@H](NC(=O)[C@H](CC(C)C)NC(=O)[C@H](Cc1c[nH]cn1)NC(=O)[C@@H](C)NC(=O)[C@@H](NC(=O)[C@H](C)NC(=O)[C@H](CCCNC(=N)N)NC(=O)[C@H](Cc1c[nH]cn1)NC(=O)[C@H](CC(N)=O)NC(=O)CNC(=O)COCCOCCNC(=O)COCCOCCNC(=O)CC[C@H](NC(=O)CCCCCCCCCCCCCCCCC(=O)O)C(=O)O)C(C)C)C(N)=O [Peptide 108, Octadecanedioyl-γGlu-OEG-OEG-Gly-Asn-His-Arg-Ala-Val-D-Ala-His-Leu-Nle-NH2] ({C18 diacid-γGlu-AEEA-AEEA}-GNHRAV[dA]HL[Nle]-NH2) | > 10000 | – | – | –
CCCC[C@H](NC(=O)[C@H](CC(C)C)NC(=O)[C@H](Cc1c[nH]cn1)NC(=O)CCNC(=O)[C@@H](NC(=O)[C@H](C)NC(=O)[C@H](Cc1c[nH]c2c(C)cccc12)NC(=O)[C@H](Cc1c[nH]cn1)NC(=O)[C@H](CCC(N)=O)NC(=O)[C@H](CO)NC(=O)[C@H](CCC(=O)O)NC(=O)COCCOCCNC(=O)COCCOCCNC(=O)CC[C@H](NC(=O)CC[C@H](NC(=O)CCCCCCCCCCCCCCCCCCC(=O)O)C(=O)O)C(=O)O)C(C)C)C(N)=O [Peptide 257, Eicosanedioyl-γGlu-γGlu-OEG-OEG-Glu-Ser-Gln-His-7MeTrp-Ala-Val-β-Ala-His-Leu-Nle-NH2] ({C20 diacid-γGlu-γGlu-AEEA-AEEA}-ESQH[Trp(7-Me)]AV[βAla]HL[Nle]-NH2) | – | 0.09 | 9.4 | –
CCCCCCCCCCCCCCCC(=O)N[C@H](CCC(=O)NCCOCCOCC(=O)NCCOCCOCC(=O)NCC(=O)N[C@@H](CC(N)=O)C(=O)N[C@@H](Cc1c[nH]cn1)C(=O)N[C@@H](Cc1c[nH]c2ccccc12)C(=O)N[C@@H](C)C(=O)N[C@H](C(=O)NCC(=O)N[C@@H](Cc1c[nH]cn1)C(=O)N[C@@H](CC(C)C)C(=O)N[C@@H](CCSC)C(N)=O)C(C)C)C(=O)O [Peptide 8, Palmitoyl-D-γGlu-OEG-OEG-Gly-Asn-His-Trp-Ala-Val-Gly-His-Leu-Met-NH2] | – | 1.2 | 2 | –
CCCC[C@H](NC(=O)[C@H](CC(C)C)NC(=O)[C@H](Cc1c[nH]cn1)NC(=O)[C@@H](C)NC(=O)[C@@H](NC(=O)[C@H](C)NC(=O)[C@H](Cc1c[nH]cn1)NC(=O)[C@H](Cc1c[nH]cn1)NC(=O)[C@H](CC(N)=O)NC(=O)CNC(=O)COCCOCCNC(=O)COCCOCCNC(=O)CC[C@H](NC(=O)CCCCCCCCCCCCCCCCC(=O)O)C(=O)O)C(C)C)C(N)=O [Peptide 107, Octadecanedioyl-γGlu-OEG-OEG-Gly-Asn-His-His-Ala-Val-D-Ala-His-Leu-Nle-NH2] ({C18 diacid-γGlu-AEEA-AEEA}-GNHHAV[dA]HL[Nle]-NH2) | > 10000 | – | – | –
CCCC[C@H](NC(=O)[C@H](CC(C)C)NC(=O)[C@H](Cc1c[nH]cn1)NC(=O)CCNC(=O)[C@@H](NC(=O)[C@H](C)NC(=O)[C@H](Cc1c[nH]c2c(C)cccc12)NC(=O)[C@H](Cc1c[nH]cn1)NC(=O)[C@H](CCCNC(=N)N)NC(=O)CNC(=O)[C@H](CCC(=O)O)NC(=O)COCCOCCNC(=O)COCCOCCNC(=O)CC[C@H](NC(=O)CC[C@H](NC(=O)CCCCCCCCCCCCCCCCCCC(=O)O)C(=O)O)C(=O)O)C(C)C)C(N)=O [Peptide 252, Eicosanedioyl-γGlu-γGlu-OEG-OEG-Glu-Gly-Arg-His-7MeTrp-Ala-Val-β-Ala-His-Leu-Nle-NH2] ({C20 diacid-γGlu-γGlu-AEEA-AEEA}-EGRH[Trp(7-Me)]AV[βAla]HL[Nle]-NH2) | 7.5 | 0.12 | 6.6 | –
CCCC[C@H](NC(=O)[C@H](CC(C)C)NC(=O)[C@H](Cc1c[nH]cn1)NC(=O)[C@@H](C)NC(=O)[C@@H](NC(=O)[C@H](C)NC(=O)[C@H](Cc1c[nH]cn1)NC(=O)[C@H](Cc1c[nH]cn1)NC(=O)[C@H](CC(N)=O)NC(=O)CNC(=O)COCCOCCNC(=O)COCCOCCNC(=O)CC[C@@H](NC(=O)CCCCCCCCCCCCCCCCC(=O)O)C(=O)O)C(C)C)C(N)=O [Peptide 68, Octadecanedioyl-D-γGlu-OEG-OEG-Gly-Asn-His-His-Ala-Val-D-Ala-His-Leu-Nle-NH2] ({C18 diacid-d(γGlu)-AEEA-AEEA}-GNHHAV[dA]HL[Nle]-NH2) | > 10000 | – | – | –
CCCC[C@H](NC(=O)[C@H](CC(C)C)NC(=O)[C@H](Cc1c[nH]cn1)NC(=O)[C@@H](C)NC(=O)[C@@H](NC(=O)[C@H](C)NC(=O)[C@H](Cc1c[nH]c2ccccc12)NC(=O)[C@H](Cc1c[nH]cn1)NC(=O)[C@H](CC(N)=O)NC(=O)CNC(=O)COCCOCCNC(=O)COCCOCCNC(=O)CC[C@H](NC(=O)CCCCCCCCCCCCCCCCC(=O)O)C(=O)O)C(C)C)C(=O)N[C@@H](CCCNC(=N)N)C(N)=O [Peptide 114, Octadecanedioyl-γGlu-OEG-OEG-Gly-Asn-His-Trp-Ala-Val-D-Ala-His-Leu-Nle-Arg-NH2] ({C18 diacid-γGlu-AEEA-AEEA}-GNHWAV[dA]HL[Nle]R-NH2) | > 10000 | – | – | –
CCCC[C@H](NC(=O)[C@H](CC(C)C)NC(=O)[C@H](Cc1c[nH]cn1)NC(=O)[C@@H](C)NC(=O)[C@@H](NC(=O)[C@H](C)NC(=O)[C@H](Cc1c[nH]cn1)NC(=O)[C@H](Cc1c[nH]cn1)NC(=O)[C@H](CCCNC(=N)N)NC(=O)CNC(=O)COCCOCCNC(=O)COCCOCCNC(=O)CC[C@H](NC(=O)CCCCCCCCCCCCCCCCC(=O)O)C(=O)O)C(C)C)C(N)=O [Peptide 116, Octadecanedioyl-γGlu-OEG-OEG-Gly-Arg-His-His-Ala-Val-D-Ala-His-Leu-Nle-NH2] ({C18 diacid-γGlu-AEEA-AEEA}-GRHHAV[dA]HL[Nle]-NH2) | > 10000 | – | – | –
CCCC[C@H](NC(=O)[C@H](CC(C)C)NC(=O)[C@H](Cc1c[nH]cn1)NC(=O)C[C@H](C)NC(=O)[C@@H](NC(=O)[C@H](C)NC(=O)[C@H](Cc1c[nH]c2c(C)cccc12)NC(=O)[C@H](Cc1c[nH]cn1)NC(=O)[C@H](CC(N)=O)NC(=O)CNC(=O)COCCOCCNC(=O)COCCOCCNC(=O)CC[C@H](NC(=O)CC[C@H](NC(=O)CCCCCCCCCCCCCCCCCCC(=O)O)C(=O)O)C(=O)O)C(C)C)C(N)=O [Peptide 258, Eicosanedioyl-γGlu-γGlu-OEG-OEG-Gly-Asn-His-7MeTrp-Ala-Val-BABA-His-Leu-Nle-NH2] ({C20 diacid-γGlu-γGlu-AEEA-AEEA}-GNH[Trp(7-Me)]AV[β3hA]HL[Nle]-NH2) | 6 | – | – | –
CCCC[C@H](NC(=O)[C@H](CC(C)C)NC(=O)[C@H](Cc1c[nH]cn1)NC(=O)[C@@H](C)NC(=O)[C@@H](NC(=O)[C@H](C)NC(=O)[C@H](Cc1c[nH]c2ccccc12)NC(=O)[C@H](Cc1c[nH]cn1)NC(=O)[C@H](CC(N)=O)NC(=O)CN)C(C)C)C(N)=O [Peptide 6, Gly-Asn-His-Trp-Ala-Val-D-Ala-His-Leu-Nle-NH2] | – | – | < 0.1 | –
CSCC[C@H](NC(=O)[C@H](CC(C)C)NC(=O)[C@H](Cc1cnc[nH]1)NC(=O)CNC(=O)[C@@H](NC(=O)[C@H](C)NC(=O)[C@H](Cc1c[nH]c2ccccc12)NC(=O)[C@H](Cc1cnc[nH]1)NC(=O)[C@H](CC(N)=O)NC(=O)CN)C(C)C)C(N)=O [GRP10, G-N-H-W-A-V-G-H-L-M-NH2, reference compound] | – | – | – | clearance ([2]; C57BL/6, mouse, iv, 2 mg/kg): 4540 mL/min/kg; half-life ([2]; C57BL/6, mouse, iv, 2 mg/kg): 0.3 h

Source: US20260176319A1, “PEPTIDE ANALOGS AND METHODS OF USING THE SAME” (Kallyope, Inc., priority 2024, published 2026)
